PMC4774911, “Biochemical Screening of Five Protein Kinases from Plasmodium falciparum against 14,000 Cell-Active Compounds” (PLoS ONE, 2016)
Several values for one entry are separate records, joined by “and”; a condition that tells them apart may be missing. Equal entries are not always repeated.

Tests used:
Assay in all cases: biochemical
CDC2 = CDC2 (Homo sapiens, UniProt P06493)
CHEK2 = CHEK2 (Homo sapiens, UniProt O96017)
GSK3A = GSK3A (Homo sapiens, UniProt P49840)
MAPK1 = MAPK1 (Homo sapiens, UniProt P28482)
NEK1 = target: T1, NEK1 (Homo sapiens, UniProt Q96PY6)
T1 sequence (Q96PY6 1-1258): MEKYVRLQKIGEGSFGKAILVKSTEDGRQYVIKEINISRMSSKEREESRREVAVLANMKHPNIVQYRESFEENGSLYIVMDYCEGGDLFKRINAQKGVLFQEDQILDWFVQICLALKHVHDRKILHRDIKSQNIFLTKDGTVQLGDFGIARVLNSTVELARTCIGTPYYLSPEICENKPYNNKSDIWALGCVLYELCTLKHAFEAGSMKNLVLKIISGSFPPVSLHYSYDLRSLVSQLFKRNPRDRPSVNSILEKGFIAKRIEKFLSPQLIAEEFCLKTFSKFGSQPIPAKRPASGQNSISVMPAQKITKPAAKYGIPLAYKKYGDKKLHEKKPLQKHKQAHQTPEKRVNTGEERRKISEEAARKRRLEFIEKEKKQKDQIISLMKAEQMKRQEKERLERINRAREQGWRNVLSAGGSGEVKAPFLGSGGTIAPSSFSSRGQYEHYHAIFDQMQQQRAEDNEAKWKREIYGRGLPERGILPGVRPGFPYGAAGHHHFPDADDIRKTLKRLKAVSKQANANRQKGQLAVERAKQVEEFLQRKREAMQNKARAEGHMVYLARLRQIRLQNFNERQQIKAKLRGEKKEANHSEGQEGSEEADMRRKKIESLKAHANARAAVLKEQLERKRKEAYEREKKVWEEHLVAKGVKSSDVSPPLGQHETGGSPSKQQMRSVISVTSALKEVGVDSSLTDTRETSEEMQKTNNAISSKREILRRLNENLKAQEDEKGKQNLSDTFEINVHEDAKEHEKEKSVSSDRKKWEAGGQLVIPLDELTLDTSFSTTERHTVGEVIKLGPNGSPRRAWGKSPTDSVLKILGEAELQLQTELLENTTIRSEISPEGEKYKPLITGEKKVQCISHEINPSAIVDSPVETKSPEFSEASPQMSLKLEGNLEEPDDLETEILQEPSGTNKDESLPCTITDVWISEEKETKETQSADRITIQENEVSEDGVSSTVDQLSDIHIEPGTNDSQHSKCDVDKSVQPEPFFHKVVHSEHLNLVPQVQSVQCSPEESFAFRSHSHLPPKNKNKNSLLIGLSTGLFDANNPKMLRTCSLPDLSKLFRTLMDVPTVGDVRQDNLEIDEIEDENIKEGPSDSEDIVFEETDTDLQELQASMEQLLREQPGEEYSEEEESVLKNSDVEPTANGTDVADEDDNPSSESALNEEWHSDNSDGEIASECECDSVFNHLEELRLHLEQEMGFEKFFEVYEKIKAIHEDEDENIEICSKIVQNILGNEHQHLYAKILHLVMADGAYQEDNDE

PDPK1 = target: T2, PDPK1 (Homo sapiens, UniProt O15530)
T2 sequence (O15530 1-556): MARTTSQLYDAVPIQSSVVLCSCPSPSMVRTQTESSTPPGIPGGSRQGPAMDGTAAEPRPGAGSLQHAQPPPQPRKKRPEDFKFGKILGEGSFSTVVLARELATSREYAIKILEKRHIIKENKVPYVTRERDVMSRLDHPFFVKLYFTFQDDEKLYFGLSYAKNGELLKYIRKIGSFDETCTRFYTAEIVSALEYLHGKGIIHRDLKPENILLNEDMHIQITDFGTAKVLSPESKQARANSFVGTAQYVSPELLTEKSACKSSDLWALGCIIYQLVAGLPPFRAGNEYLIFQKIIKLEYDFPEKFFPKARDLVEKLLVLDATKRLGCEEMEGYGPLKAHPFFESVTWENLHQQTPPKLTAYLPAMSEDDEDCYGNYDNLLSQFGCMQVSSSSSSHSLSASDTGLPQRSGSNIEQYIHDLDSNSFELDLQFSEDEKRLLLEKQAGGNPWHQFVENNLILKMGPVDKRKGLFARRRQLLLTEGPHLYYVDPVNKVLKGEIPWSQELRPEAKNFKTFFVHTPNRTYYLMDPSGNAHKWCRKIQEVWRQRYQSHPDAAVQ

PRKD3 = target: T3, PRKD3 (Homo sapiens, UniProt O94806)
T3 sequence (O94806 1-890): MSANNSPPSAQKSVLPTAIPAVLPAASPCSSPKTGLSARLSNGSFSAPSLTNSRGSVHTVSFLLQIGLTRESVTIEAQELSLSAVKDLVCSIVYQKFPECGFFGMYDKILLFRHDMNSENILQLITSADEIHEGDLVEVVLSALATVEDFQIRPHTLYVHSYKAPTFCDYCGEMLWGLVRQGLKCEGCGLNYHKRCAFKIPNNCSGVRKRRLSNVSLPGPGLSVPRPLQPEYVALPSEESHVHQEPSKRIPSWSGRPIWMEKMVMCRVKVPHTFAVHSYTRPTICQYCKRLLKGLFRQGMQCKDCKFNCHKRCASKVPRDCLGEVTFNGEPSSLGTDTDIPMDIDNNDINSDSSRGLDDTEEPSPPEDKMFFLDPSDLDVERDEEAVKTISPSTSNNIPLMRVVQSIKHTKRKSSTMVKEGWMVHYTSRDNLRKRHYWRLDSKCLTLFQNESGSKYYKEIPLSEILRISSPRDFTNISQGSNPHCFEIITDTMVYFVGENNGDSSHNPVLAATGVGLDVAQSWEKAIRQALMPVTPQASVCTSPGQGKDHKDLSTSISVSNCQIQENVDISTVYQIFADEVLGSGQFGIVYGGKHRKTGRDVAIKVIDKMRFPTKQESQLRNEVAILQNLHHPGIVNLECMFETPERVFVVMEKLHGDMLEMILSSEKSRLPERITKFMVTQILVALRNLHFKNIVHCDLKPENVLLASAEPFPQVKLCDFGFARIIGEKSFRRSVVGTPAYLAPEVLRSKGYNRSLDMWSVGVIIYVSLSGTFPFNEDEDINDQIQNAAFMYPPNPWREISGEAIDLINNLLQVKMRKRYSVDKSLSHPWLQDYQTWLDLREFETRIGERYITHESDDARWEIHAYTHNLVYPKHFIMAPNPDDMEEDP

TNIK = TNIK (Homo sapiens, UniProt Q9UKE5)
Chain of TNIK (Q9UKE5 whole entry): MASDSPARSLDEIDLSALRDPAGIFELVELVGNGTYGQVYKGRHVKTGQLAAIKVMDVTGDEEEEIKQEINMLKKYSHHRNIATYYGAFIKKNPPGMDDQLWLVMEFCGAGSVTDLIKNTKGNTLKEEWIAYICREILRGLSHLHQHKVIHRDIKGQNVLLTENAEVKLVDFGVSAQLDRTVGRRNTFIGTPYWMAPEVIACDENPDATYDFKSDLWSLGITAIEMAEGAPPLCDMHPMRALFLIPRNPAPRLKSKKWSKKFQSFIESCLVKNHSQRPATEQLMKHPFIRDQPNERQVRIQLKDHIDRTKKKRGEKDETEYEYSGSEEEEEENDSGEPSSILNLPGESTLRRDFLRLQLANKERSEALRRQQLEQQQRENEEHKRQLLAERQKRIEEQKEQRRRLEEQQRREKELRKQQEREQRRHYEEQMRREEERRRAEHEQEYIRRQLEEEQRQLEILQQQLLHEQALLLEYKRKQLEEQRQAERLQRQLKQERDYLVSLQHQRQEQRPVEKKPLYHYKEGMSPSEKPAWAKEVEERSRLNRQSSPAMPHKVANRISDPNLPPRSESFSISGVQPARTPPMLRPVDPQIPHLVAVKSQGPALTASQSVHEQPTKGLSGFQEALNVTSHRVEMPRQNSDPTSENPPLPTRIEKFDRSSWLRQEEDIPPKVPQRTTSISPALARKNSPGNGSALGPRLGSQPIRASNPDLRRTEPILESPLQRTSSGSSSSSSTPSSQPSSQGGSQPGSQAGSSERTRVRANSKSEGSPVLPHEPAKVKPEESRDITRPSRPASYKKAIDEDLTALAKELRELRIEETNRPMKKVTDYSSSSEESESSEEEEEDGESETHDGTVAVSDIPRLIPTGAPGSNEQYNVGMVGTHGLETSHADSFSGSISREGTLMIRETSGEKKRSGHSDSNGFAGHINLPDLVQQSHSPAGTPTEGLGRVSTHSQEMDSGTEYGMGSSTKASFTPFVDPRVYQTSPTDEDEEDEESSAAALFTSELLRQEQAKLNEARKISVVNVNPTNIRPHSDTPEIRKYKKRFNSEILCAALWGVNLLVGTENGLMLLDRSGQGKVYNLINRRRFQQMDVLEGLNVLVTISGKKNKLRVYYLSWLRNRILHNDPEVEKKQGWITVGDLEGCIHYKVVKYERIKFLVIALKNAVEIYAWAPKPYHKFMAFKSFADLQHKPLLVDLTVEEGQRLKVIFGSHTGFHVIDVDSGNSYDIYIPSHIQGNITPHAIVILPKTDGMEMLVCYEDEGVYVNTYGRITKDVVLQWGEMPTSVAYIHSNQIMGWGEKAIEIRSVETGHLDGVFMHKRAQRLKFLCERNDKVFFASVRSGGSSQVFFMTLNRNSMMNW

Chain of CHEK2 (O96017 whole entry): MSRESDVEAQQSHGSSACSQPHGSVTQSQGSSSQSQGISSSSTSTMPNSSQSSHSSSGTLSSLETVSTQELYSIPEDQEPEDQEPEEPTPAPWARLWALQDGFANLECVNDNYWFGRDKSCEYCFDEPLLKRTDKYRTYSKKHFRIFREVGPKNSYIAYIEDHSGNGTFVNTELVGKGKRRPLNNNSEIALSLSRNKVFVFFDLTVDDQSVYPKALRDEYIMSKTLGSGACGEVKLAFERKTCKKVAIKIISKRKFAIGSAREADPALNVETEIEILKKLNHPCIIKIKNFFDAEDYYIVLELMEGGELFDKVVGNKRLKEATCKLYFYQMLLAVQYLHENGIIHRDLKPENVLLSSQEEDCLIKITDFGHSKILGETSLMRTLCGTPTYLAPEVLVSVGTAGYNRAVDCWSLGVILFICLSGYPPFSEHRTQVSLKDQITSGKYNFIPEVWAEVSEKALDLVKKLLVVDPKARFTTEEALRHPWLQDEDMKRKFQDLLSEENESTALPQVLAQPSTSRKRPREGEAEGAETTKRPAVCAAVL
Chain of MAPK1 (P28482 whole entry): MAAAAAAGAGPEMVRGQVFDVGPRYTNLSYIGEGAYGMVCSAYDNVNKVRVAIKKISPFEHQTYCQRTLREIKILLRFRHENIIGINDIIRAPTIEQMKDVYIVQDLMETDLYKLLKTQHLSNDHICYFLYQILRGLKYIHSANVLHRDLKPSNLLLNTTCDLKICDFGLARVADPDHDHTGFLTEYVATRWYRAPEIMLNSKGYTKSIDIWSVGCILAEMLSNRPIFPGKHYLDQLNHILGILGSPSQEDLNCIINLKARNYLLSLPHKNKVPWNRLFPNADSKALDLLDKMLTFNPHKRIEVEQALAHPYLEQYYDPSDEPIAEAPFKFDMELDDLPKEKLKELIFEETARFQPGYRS
Chain of CDC2 (P06493 whole entry): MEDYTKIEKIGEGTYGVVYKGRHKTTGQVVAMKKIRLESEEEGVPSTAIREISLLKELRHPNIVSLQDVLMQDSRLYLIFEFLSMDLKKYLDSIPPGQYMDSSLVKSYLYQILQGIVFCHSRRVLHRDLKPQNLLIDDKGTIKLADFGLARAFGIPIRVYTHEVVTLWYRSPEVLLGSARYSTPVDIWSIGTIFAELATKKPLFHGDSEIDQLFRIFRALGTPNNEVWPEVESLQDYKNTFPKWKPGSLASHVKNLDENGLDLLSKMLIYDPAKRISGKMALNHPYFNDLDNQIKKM
Chain of GSK3A (P49840 whole entry): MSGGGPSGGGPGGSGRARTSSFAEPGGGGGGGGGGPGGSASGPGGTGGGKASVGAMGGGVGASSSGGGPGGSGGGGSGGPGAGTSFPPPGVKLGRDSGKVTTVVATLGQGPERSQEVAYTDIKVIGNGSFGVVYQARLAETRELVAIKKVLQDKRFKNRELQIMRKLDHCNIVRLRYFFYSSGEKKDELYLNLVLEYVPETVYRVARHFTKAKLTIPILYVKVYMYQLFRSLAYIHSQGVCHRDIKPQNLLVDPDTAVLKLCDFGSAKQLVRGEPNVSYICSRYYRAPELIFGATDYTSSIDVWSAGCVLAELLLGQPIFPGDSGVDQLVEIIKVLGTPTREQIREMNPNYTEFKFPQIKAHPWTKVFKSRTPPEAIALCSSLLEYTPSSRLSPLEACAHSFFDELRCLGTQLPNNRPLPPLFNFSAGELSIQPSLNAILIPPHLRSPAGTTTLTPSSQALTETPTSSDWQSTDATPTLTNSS

SMILES: CN1CCN(c2ccc(Nc3ncc(C#N)c(Nc4ccccc4C(N)=O)n3)cc2)CC1.Cl [TCMDC-134116]
- IC50 (CDC2): 1500 nM
- IC50 (CHEK2): 170 nM
- IC50 (GSK3A): 1400 nM and 1100 nM
- IC50 (MAPK1): > 20000 nM
- IC50 (NEK1): 570 nM and 470 nM
- IC50 (PDPK1): 890 nM and 740 nM
- IC50 (PRKD3): 370 nM
- IC50 (TNIK): 200 nM and 250 nM

SMILES: Cl.NCC1(c2nc(-c3ccc(Cl)c(O)c3)c(-c3ccncc3)[nH]2)CCCCC1 [TCMDC-141154]
- IC50 (CDC2): > 20000 nM
- IC50 (CHEK2): > 20000 nM
- IC50 (GSK3A): > 20000 nM
- IC50 (MAPK1): > 20000 nM
- IC50 (NEK1): > 20000 nM
- IC50 (PDPK1): > 20000 nM
- IC50 (PRKD3): 8700 nM
- IC50 (TNIK): 290 nM

SMILES: CN(C)CC(O)COc1ccc(Nc2ncc([N+](=O)[O-])c(Nc3ccccc3O)n2)cc1.O=C(O)C(F)(F)F (stereo not drawn) [TCMDC-141399]
- IC50 (CDC2): > 20000 nM
- IC50 (CHEK2): 11000 nM
- IC50 (GSK3A): 6700 nM and 7400 nM
- IC50 (MAPK1): > 20000 nM
- IC50 (NEK1): 6400 nM
- IC50 (PDPK1): > 20000 nM
- IC50 (PRKD3): 9100 nM and 7600 nM
- IC50 (TNIK): 820 nM
